According to ChEMBL document CHEMBL1201862, “PubChem BioAssay data set” (2004):
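Step 1: Grow cells in 96-well plates. Step 2: Expose to compound for 48 hours at 5 concentrations. Step 3: Interpolate endpoints linearly; if unreached, use highest concentration. The concentration for 50% growth inhibition is given as GI50.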 The source made the active and inactive calls. No stated cut-off is given here; in the data, active = GI50 up to about 1.1 µM and inactive = higher.

What was measured:
Assay in all cases: NCI anticancer screen, dose series, 48 h
SK-MEL-28 = test system: SK-MEL-28
SW-620 = test system: SW-620
UACC-62 = test system: UACC-62
MOLT-4 = test system: MOLT-4
RXF 393 = test system: RXF 393
COLO 205 = test system: COLO 205
NCI-H522 = test system: NCI-H522
HCC 2998 = test system: HCC 2998
DU-145 = test system: DU-145
MDA-MB-435 = test system: MDA-MB-435
SF-295 = test system: SF-295
MDA-N = test system: MDA-N
MDA-MB-231 = test system: MDA-MB-231
PC-3 = test system: PC-3
UO-31 = test system: UO-31
A498 = test system: A498
SF-539 = test system: SF-539
MCF7 = test system: MCF7
SK-MEL-2 = test system: SK-MEL-2
SN12C = test system: SN12C

SMILES	GI50 (SK-MEL-28)	GI50 (SW-620)	GI50 (UACC-62)	GI50 (MOLT-4)	GI50 (RXF 393)	GI50 (COLO 205)	GI50 (NCI-H522)	GI50 (HCC 2998)	GI50 (DU-145)	GI50 (MDA-MB-435)	GI50 (SF-295)	GI50 (MDA-N)	GI50 (MDA-MB-231)	GI50 (PC-3)	GI50 (UO-31)	GI50 (A498)	GI50 (SF-539)	GI50 (MCF7)	GI50 (SK-MEL-2)	GI50 (SN12C)
Cn1c([N+](=O)[O-])cnc1CN1CCN(CCO)CC1	> 100 µM (inactive)	> 100 µM (inactive)	> 100 µM (inactive)	> 100 µM (inactive)	> 100 µM (inactive)	> 100 µM (inactive)	> 100 µM (inactive)	> 100 µM (inactive)	> 100 µM (inactive)	> 100 µM (inactive)	> 100 µM (inactive)	> 100 µM (inactive)	> 100 µM (inactive)	> 100 µM (inactive)	> 100 µM (inactive)	> 100 µM (inactive)	> 100 µM (inactive)	> 100 µM (inactive)	> 100 µM (inactive)	> 100 µM (inactive)
Clc1ccc(C2=NN=C3C(c4ccccc4)=Nc4ccccc4N3C2)cc1	37.5 µM (inactive)	5.45 µM (inactive)	5.3 µM (inactive)	0.957 µM (active)	1.48 µM (inactive)	5.68 µM (inactive)	2.75 µM (inactive)	17.9 µM (inactive)	1.91 µM (inactive)	4.72 µM (inactive)	11.1 µM (inactive)	7.03 µM (inactive)	32.7 µM (inactive)	8.61 µM (inactive)	3.72 µM (inactive)	56.1 µM (inactive)	19.3 µM (inactive)	4.4 µM (inactive)	17.7 µM (inactive)	20.9 µM (inactive)
CCN(CC)Cc1ccc(Nc2c3ccccc3nc3ccccc23)cc1	1.61 µM (inactive)	1.64 µM (inactive)	1.81 µM (inactive)	0.955 µM (active)	1.72 µM (inactive)	1.71 µM (inactive)	1.41 µM (inactive)	1.08 µM (active)	2.37 µM (inactive)	2.04 µM (inactive)	2.62 µM (inactive)	1.53 µM (inactive)	1.66 µM (inactive)	1.59 µM (inactive)	1.9 µM (inactive)	3.09 µM (inactive)	1.8 µM (inactive)	1.71 µM (inactive)	2.99 µM (inactive)	2.31 µM (inactive)
C[C@]12C[C@H](c3ccccc3)Nc3ccccc3N1C(c1ccccc1)=NO2		> 100 µM (inactive)	85.1 µM (inactive)	24.5 µM (inactive)	> 100 µM (inactive)	78.7 µM (inactive)	> 100 µM (inactive)	> 100 µM (inactive)	> 100 µM (inactive)	35.5 µM (inactive)	22.5 µM (inactive)	74.1 µM (inactive)	> 100 µM (inactive)	40.4 µM (inactive)	41.4 µM (inactive)	> 100 µM (inactive)	> 100 µM (inactive)	52.6 µM (inactive)	> 100 µM (inactive)	> 100 µM (inactive)
CC(C)(C)c1cc(OCc2nnc3sc(-c4ccc(Cl)cc4)nn23)c(Cl)cc1OCc1nnc2sc(-c3ccc(Cl)cc3)nn12	3.89 µM (inactive)	3.13 µM (inactive)	4.45 µM (inactive)	4.93 µM (inactive)	2.81 µM (inactive)	7.46 µM (inactive)	0.564 µM (active)	2.34 µM (inactive)	4.19 µM (inactive)	0.478 µM (active)	3.3 µM (inactive)	0.644 µM (active)	8.15 µM (inactive)	4.62 µM (inactive)	10.3 µM (inactive)	8.73 µM (inactive)	2.57 µM (inactive)	3.17 µM (inactive)	7.91 µM (inactive)	10.2 µM (inactive)
c1ccc(COCC23CCN(Cc4ccccc4)C(CC(OCc4ccccc4)C2)S3)cc1 (centres undefined)	> 100 µM (inactive)	> 100 µM (inactive)	52.4 µM (inactive)	25.6 µM (inactive)	> 100 µM (inactive)	35.2 µM (inactive)	29.7 µM (inactive)	58.5 µM (inactive)	> 100 µM (inactive)	46 µM (inactive)	87.1 µM (inactive)	50.9 µM (inactive)	66.4 µM (inactive)	31.8 µM (inactive)	30.2 µM (inactive)	39.3 µM (inactive)	> 100 µM (inactive)	14.8 µM (inactive)	37.2 µM (inactive)	57.9 µM (inactive)
CCOC(=O)c1nnc2c(C#N)c(-c3ccccc3)c(C)n2c1N	21.6 µM (inactive)	40.6 µM (inactive)	23.9 µM (inactive)	30.5 µM (inactive)	98.4 µM (inactive)	32.9 µM (inactive)	27.7 µM (inactive)	32.5 µM (inactive)	83.9 µM (inactive)	32 µM (inactive)	34.1 µM (inactive)	27 µM (inactive)	51.8 µM (inactive)	82.4 µM (inactive)	33.4 µM (inactive)	26.8 µM (inactive)	30.9 µM (inactive)	39.4 µM (inactive)	42.4 µM (inactive)	37.8 µM (inactive)
